In patent US10722484B2, “Methods of cancer treatment” (K-Gen, Inc., priority 2016, dated 2020):
Where two headings read alike, the source gives them in different places.

Tests used:
[1] = test system: HL-60 human promyelocytic leukemia cells; assay: Combination viability/proliferation assays
Procedure: Briefly, cells at density of 1,000-10,000 cells/well in 96-well plates or 200-1600 cells/well in 384-well plates were seeded and incubated at 37° C. for 24 hours before addition of compounds. A series of 9 different concentrations of compound stocks (500×) were prepared by 3-fold serial dilutions in DMSO. […] After 96 hours of incubation, 35 μL or 50 μL of CellTiter Glo reagent (Promega) was added to each well and luminescence was measured after 10 minutes using EnVision (PerkinElmer). Luminescence from cells treated with DMSO alone was set as Max and % of inhibition was calculated as follows: Inhibition %=(Max-Sample value)/Max*100. Data were analyzed using XLfit software (ID Business Solutions Ltd.) or GraphPad software and IC50, relative IC50, and % of top inhibition were calculated.
The top concentration for the tested PKC activator compound was set at roughly the IC50 when the same testing compound was used as a single agent assayed in the same cell line. The next dose was either 3-fold or 10-fold dilution from the top concentration.

[2] = test system: A549 lung cancer cell line; assay: Combination viability/proliferation assays (384-well IC50 ratio, 96-well MacSynergy II); type: cell-based; conditions: for Ratio ([…] DMSO IC50/combination IC50) / Combination in A549: K101A (synergism/antagonism) / Combination in A549: K102 (synergism/antagonism) / Combination in A549: K101E (synergism/antagonism): A549; for Combination in A549: K101A (synergism/antagonism): agent assayed in combination with K101A; for Combination in A549: K101A (synergism/antagonism) / Combination in A549: K102 (synergism/antagonism): * 2-3 concentrations, # full concentration ranges; for Combination in A549: K102 (synergism/antagonism): agent assayed in combination with K102; for effect in combination with the PKC activator compounds in inhibiting the growth of A549 cells: PKC activator compounds (K101A, K101E, K102); for Combination in A549: K101E (synergism/antagonism): agent assayed in combination with K101E
Procedure: (§1) A 96-well MacSynergy II format for combination test was also used. […] The analysis was done with the SQRT(Data) scale and the four parameter Hill curve was fitted using XLfit5.1 (the MacSynergy II Excel Spreadsheet) for the inhibition data. Synergy (positive number) or Antagonism (negative number) volumes were calculated. […] Three-dimensional MacSynergy II graphs were generated where positive values indicated synergism and negative values indicated antagonism.

Panc2.13 = assay: Combination viability/proliferation assays; type: cell-based; conditions: for effect in combination with K101A: Panc2.13, K101A at 1 μM or at 0.67 μM; for Combination effect, Panc2.13: K101A: agent in combination with K101A
Procedure: as §1

AsPC-1 = assay: Proliferation assay (CellTiter Glo); type: cell-based; conditions: 96 hours
Procedure: (§2) The dose range for most compounds was 4.6 nM-30 μM. The dose ranges for some compounds were adjusted downward to 0.46 nM-3 μM or 0.08 nM-0.5 μM or 0.03 nM-0.2 μM. […] The results are shown in Tables 3-6 for pancreatic cancer, lung cancer, colon/gastric cancer, and leukemia.

CCRF-CEM = assay: Proliferation assay (CellTiter Glo); type: cell-based; conditions: 96 hours
Procedure: as §2

Pan2.13 = assay: Proliferation assay (CellTiter Glo); type: cell-based; conditions: 96 hours
Procedure: as §2

Pan2.03 = assay: Proliferation assay (CellTiter Glo); type: cell-based; conditions: 96 hours
Procedure: as §2

RPMI8226 = assay: Proliferation assay (CellTiter Glo); type: cell-based; conditions: RPM18226; 96 hours
Procedure: as §2
(§3) Other cancer cell lines having wild-type K-RAS status and K-RAS mutation at G12 were also screened using the PKC activator compounds. […] K104 was tested in a range of 0.03 nM-0.2 μM. […] The dose ranges were adjusted downward to 0.46 nM-3 μM for K102 and 0.08 nM-0.5 μM for K103 for some cell lines. The results of the screening of cancer cells lines with wild-type K-RAS status and K-RAS mutations at the G12 positions are presented in Table 7.

H1915 = assay: Proliferation assay (CellTiter Glo); type: cell-based; conditions: H1915 (RAS WT); 96 hours
Procedure: as §2, §3

BxPC-3 = assay: Proliferation assay (CellTiter Glo); type: cell-based; conditions: BxPC-3 (RAS WT); 96 hours
Procedure: as §2, §3

H838 = assay: Proliferation assay (CellTiter Glo); type: cell-based; conditions: H838 (RAS WT); 96 hours
Procedure: as §2, §3

SW900 = assay: Proliferation assay (CellTiter Glo); type: cell-based; conditions: SW900 (K-RAS: G12V); 96 hours
Procedure: as §2, §3

HT29 = assay: Proliferation assay (CellTiter Glo); type: cell-based; conditions: HT29 (RAS WT); 96 hours
Procedure: as §2, §3

Colo205 = assay: Proliferation assay (CellTiter Glo); type: cell-based; conditions: Colo205 (RAS WT); 96 hours
Procedure: as §2, §3

[3] = in combination with 0.013 μM K102
[4] = in combination with 0.04 μM K102
[5] = in combination with 0.33 uM K101A
[6] = in combination with 0.0002 μM K102, NC: no change
[7] = in combination with 0.002 μM K102, NC: no change
[8] = in combination with 0.005 μM K101A, NC: no change
[9] = in combination with 0.02 μM K102, NC: no change
[10] = in combination with 0.05 μM K101A, NC: no change
[11] = in combination with 0.5 μM K101A, ratio >2 synergistic, <0.5 antagonistic, NC: no change

SMILES: Cc1sc2c(c1C)C(c1ccc(Cl)cc1)=NC(CC(=O)OC(C)(C)C)c1nnc(C)n1-2 (racemic) [(±)-JQ1, tert-butyl 2-(4-(4-chlorophenyl)-2,3,9-triMethyl-6H-thieno[3,2-f][1,2,4]triazolo[4,3-a][1,4]diazepin-6-yl)acetate]
- effect in combination with K101A and K102 [1]: moderate or minor synergistic/additive effect
- Ratio ([…] DMSO IC50/combination IC50) [2, 3]: 0.55
- Ratio ([…] DMSO IC50/combination IC50) [2, 4]: 0.57
- Ratio ([…] DMSO IC50/combination IC50) [2, 5]: 0.27
- Ratio ([…] DMSO IC50/combination IC50) ([2]; in combination with 1 uM K101A): 0.09
- effect in combination with K101A or K102 in inhibiting the growth of A549 cells [2]: strong antagonist effect
- Combination in A549: K101A (synergism/antagonism) [2]: Antagonism
- Combination in A549: K102 (synergism/antagonism) [2]: Antagonism

SMILES: Cc1nc(Nc2ncc(C(=O)Nc3c(C)cccc3Cl)s2)cc(N2CCN(CCO)CC2)n1 [Dasatinib]
- increase of potency in inhibiting growth ([1]; combined with K101A (0.3 μM) or K102 (0.005 μM)): more than 10 fold

SMILES: O=C1[C@H](Cc2ccc(O)cc2)N2C(=O)CCN(C(=O)NCc3ccccc3)[C@H]2CN1Cc1cccc2ccccc12 [ICG-001, (6S,9aS)-Hexahydro-6-[(4-hydroxyphenyl)methyl]-8-(1-naphthalenylmethyl)-4,7-dioxo-N-(phenylmethyl)-2H-pyrazino[1,2-a]pyrimidine-1(6H)-carboxamide]
- effect in combination with K101A (Panc2.13): strong synergy
- Combination effect, Panc2.13: K101A (Panc2.13): Synergism
- Ratio ([…] DMSO IC50/combination IC50) [2, 3]: 0.96
- Ratio ([…] DMSO IC50/combination IC50) [2, 4]: 1.10
- Ratio ([…] DMSO IC50/combination IC50) [2, 5]: 1.05
- Ratio ([…] DMSO IC50/combination IC50) ([2]; in combination with 1 uM K101A): 1.10
- effect in combination with K101A or K102 in inhibiting the growth of A549 cells [2]: did not show synergy
- effect in combination with the PKC activator compounds in inhibiting the growth of A549 cells [2]: insignificant synergism or antagonism
- Combination in A549: K101A (synergism/antagonism) [2]: None
- Combination in A549: K102 (synergism/antagonism) [2]: None

SMILES: O=C(c1cc(Cc2n[nH]c(=O)c3ccccc23)ccc1F)N1CCN(C(=O)C2CC2)CC1 [Olaparib]
- effect in combination with K101A (Panc2.13): strong synergy
- Combination effect, Panc2.13: K101A (Panc2.13): Synergism
- Ratio ([…] DMSO IC50/combination IC50) [2, 6]: 0.78
- Ratio ([…] DMSO IC50/combination IC50) [2, 7]: 1.43
- Ratio ([…] DMSO IC50/combination IC50) [2, 8]: 0.91
- Ratio ([…] DMSO IC50/combination IC50) [2, 9]: 2.74
- Ratio ([…] DMSO IC50/combination IC50) ([2]; in combination with 0.03 μM K101E (footnote, Olaparib)): 1.15
- Ratio ([…] DMSO IC50/combination IC50) [2, 10]: 1.38
- Ratio ([…] DMSO IC50/combination IC50) ([2]; in combination with 0.3 μM K101E (footnote, Olaparib)): 1.30
- Ratio ([…] DMSO IC50/combination IC50) [2, 11]: 2.76
- Ratio ([…] DMSO IC50/combination IC50) ([2]; in combination with 3 μM K101E (footnote, Olaparib)): 1.97
- effect in combination with the PKC activator compounds in inhibiting the growth of A549 cells [2]: synergistic effect
- Combination in A549: K101A (synergism/antagonism) [2]: Synergism
- Combination in A549: K101E (synergism/antagonism) [2]: None
- Combination in A549: K102 (synergism/antagonism) [2]: Synergism

SMILES: CC(=O)OC12CC(C)C3(O)C(C=C(COC(=O)CC(N)C(=O)[O-])CC4(O)C(=O)C(C)=CC43)C1C2(C)C.[Na+] (stereo not shown) [Compound K101I]
- EC50 (AsPC-1; AsPC-1 (K-RAS: G12D), absolute EC50, read-out: Ab EC50): > 30 µM
- Top Inhibition % (AsPC-1; AsPC-1, % of top inhibition): 25.0%
- EC50 (AsPC-1; AsPC-1, relative EC50, read-out: Re EC50): 6.64 µM
- EC50 (CCRF-CEM; CCRF-CEM (K-RAS: G12D), absolute EC50, read-out: Ab EC50): > 30 µM
- Top Inhibition % (CCRF-CEM; CCRF-CEM, % of top inhibition): 37.4%
- EC50 (CCRF-CEM; CCRF-CEM, relative EC50, read-out: Re EC50): 1.51 µM
- EC50 (Pan2.13; Pan2.13 (K-RAS: Q61H), absolute EC50, read-out: Ab EC50): > 30 µM
- Top Inhibition % (Pan2.13; Pan2.13, % of top inhibition): 48.3%
- EC50 (Pan2.13; Pan2.13, relative EC50, read-out: Re EC50): 0.16 µM
- EC50 (Pan2.03; Pan2.03 (K-RAS: G12D), absolute EC50, read-out: Ab EC50): > 30 µM
- Top Inhibition % (Pan2.03; Pan2.03, % of top inhibition): 26.3%
- EC50 (Pan2.03; Pan2.03, relative EC50, read-out: Re EC50): 6.04 µM
- Top Inhibition % (RPMI8226): 17.60%
- Top Inhibition % (H1915): 16.4%
- Top Inhibition % (BxPC-3): 38.12%
- Top Inhibition % (H838): 29.3%
- Top Inhibition % (SW900): 10.8%
- Top Inhibition % (HT29): 11.8%
- Top Inhibition % (Colo205): 82.2%

SMILES: O=C(CCCCCCC(=O)Nc1ccccc1)NO [SAHA, suberoylanilide hydroxamic acid]
- effect in combination with K101A and K102 [1]: moderate or minor synergistic/additive effect
- Combination in A549: K101A (synergism/antagonism) [2]: Antagonism (minor)
- Combination in A549: K102 (synergism/antagonism) [2]: Antagonism (minor)

SMILES: NC1(c2ccc(-c3nc4ccn5c(=O)[nH]nc5c4cc3-c3ccccc3)cc2)CCC1 [MK2206, 8-[4-(1-aminocyclobutyl)phenyl]-9-phenyl-2H-[1,2,4]triazolo[3,4-f][1,6]naphthyridin-3-one]
- Combination effect, Panc2.13: K101A (Panc2.13): None
- Ratio ([…] DMSO IC50/combination IC50) [2, 6]: 0.81
- Ratio ([…] DMSO IC50/combination IC50) [2, 7]: 3.13
- Ratio ([…] DMSO IC50/combination IC50) [2, 8]: 0.68
- Ratio ([…] DMSO IC50/combination IC50) [2, 9]: 5.57
- Ratio ([…] DMSO IC50/combination IC50) [2, 10]: 2.13
- Ratio ([…] DMSO IC50/combination IC50) [2, 11]: 6.03
- effect in combination with the PKC activator compounds in inhibiting the growth of A549 cells [2]: strong synergy
- Combination in A549: K101A (synergism/antagonism) [2]: Synergism (strong)
- Combination in A549: K101E (synergism/antagonism) [2]: Synergism
- Combination in A549: K102 (synergism/antagonism) [2]: Synergism (strong)
